Where two headings read alike, the source gives them in different places.
Target: T1, FMS (h) (Homo sapiens, UniProt P07333)
T1 construct: purchased Reaction Biology Corp. (Kinase HotSpot service)
Assay: Kinase HotSpot radiometric assay, activity on CSF-1R (FMS)
Format: biochemical

[1] = Table 3, read-out: IC50 (M) on FMS

T1 sequence (P07333 20-972): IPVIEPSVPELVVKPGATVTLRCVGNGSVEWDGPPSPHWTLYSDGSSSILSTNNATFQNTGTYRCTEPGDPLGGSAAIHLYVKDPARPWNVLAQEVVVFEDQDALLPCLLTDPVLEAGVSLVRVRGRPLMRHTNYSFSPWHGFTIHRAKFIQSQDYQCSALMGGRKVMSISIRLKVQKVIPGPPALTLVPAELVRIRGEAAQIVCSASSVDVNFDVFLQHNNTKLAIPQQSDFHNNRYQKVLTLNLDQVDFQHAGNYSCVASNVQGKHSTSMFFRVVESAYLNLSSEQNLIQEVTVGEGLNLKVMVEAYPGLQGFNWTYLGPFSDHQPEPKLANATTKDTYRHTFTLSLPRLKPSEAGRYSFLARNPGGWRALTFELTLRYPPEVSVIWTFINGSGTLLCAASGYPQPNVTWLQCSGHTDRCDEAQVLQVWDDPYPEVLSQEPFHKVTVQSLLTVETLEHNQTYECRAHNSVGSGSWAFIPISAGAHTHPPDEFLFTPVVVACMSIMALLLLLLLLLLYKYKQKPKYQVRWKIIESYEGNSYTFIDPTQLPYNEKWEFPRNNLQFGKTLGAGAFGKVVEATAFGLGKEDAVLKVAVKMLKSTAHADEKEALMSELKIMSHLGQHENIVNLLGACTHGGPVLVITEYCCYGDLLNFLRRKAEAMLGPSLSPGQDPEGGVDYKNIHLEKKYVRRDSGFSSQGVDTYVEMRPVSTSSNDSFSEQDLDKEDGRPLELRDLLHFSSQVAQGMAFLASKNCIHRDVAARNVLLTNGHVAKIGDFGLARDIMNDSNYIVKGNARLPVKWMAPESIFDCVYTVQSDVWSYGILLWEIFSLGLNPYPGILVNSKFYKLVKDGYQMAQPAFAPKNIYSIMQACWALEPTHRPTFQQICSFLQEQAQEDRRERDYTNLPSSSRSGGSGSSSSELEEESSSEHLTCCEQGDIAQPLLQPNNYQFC

Cc1cc(C(=O)Nc2ccc(C3CC(C)(C)NC(C)(C)C3)cc2C2=CCCCCC2)no1 [Compound 92d, N-(2-(cyclohept-1-en-1-yl)-4-(2,2,6,6-tetramethylpiperidin-4-yl)phenyl)-5-methylisoxazole-3-carboxamide]
IC50 (Table 2, read-out: IC50 (μm)): 1e-07 to 1e-06 M | IC50 [1]: 1e-07 to 1e-06 M

Cc1cc(C(=O)Nc2ccc(C3CC(C)(C)NC(C)(C)C3)cc2C2=CCC(C)(C)CC2)no1 [Compound 92c, N-(4′,4′-dimethyl-5-(2,2,6,6-tetramethylpiperidin-4-yl)-2,3′,4′,5′-tetrahydro-[1,1′-biphenyl]-2-yl)-5-methylisoxazole-3-carboxamide]
IC50 (Table 2, read-out: IC50 (μm)): < 1e-07 M | IC50 [1]: < 1e-07 M

Cc1cc(C(=O)Nc2ccc(C3CCC[N+](C)(C)CC3)cc2C2=CCC(C)(C)CC2)no1 (stereo not shown) [Compound 80c, 4-(4′,4′-dimethyl-6-(5-methylisoxazole-3-carboxamido)-2′,3′,4′,5′-tetrahydro-[1,1′-biphenyl]-3-yl)-1,1-dimethylazepan-1-ium]
IC50 [1]: < 1e-07 M

Cc1cc(C(=O)Nc2ccc(C3CCNCC3)cc2C2=CCCC2)no1 [Compound 61b, N-(2-(Cyclopent-1-en-1-yl)-4-(piperidin-4-yl)phenyl)-5-methylisoxazole-3-carboxamide]
IC50 (Table 1, read-out: IC50): > 1e-06 M | IC50 [1]: > 1e-06 M

Cc1cc(C(=O)Nc2ccc(C3CCN(C(=O)CN(C)C)CC3)cc2C2=CCCCC2)no1 [Compound 84b, N-(5-(1-(dimethylglycyl)piperidin-4-yl)-2′,3′,4′,5′-tetrahydro-[1,1′-biphenyl]-2-yl)-5-methylisoxazole-3-carboxamide]
IC50 [1]: 1e-07 to 1e-06 M

Cc1cc(C(=O)Nc2ccc(C3CCN(CC4CC4)CC3)cc2C2=CCC(C)CC2)no1 (stereo not shown) [Compound 77b, N-(5-(1-(cyclopropylmethyl)piperidin-4-yl)-4′-methyl-2,3,4,5′-tetrahydro-[1,1′-biphenyl]-2-yl)-5-methylisoxazole-3-carboxamide]
IC50 (Table 1, read-out: IC50): < 1e-07 M | IC50 [1]: < 1e-07 M

Cc1cc(C(=O)Nc2ccc(C3CC(C)(C)NC(C)(C)C3)cc2C2=CCCCC2)no1 [Compound 92a, 5-methyl-N-(5-(2,2,6,6-tetramethylpiperidin-4-yl)-2′,3′,4′,5′-tetrahydro-[1,1′-biphenyl]-2-yl)isoxazole-3-carboxamide]
IC50 (Table 2, read-out: IC50 (μm)): 1e-07 to 1e-06 M | IC50 [1]: < 1e-07 M

Cc1cc(C(=O)Nc2cc(NC(=O)c3ccc(-c4ccccc4)cc3)ccc2C)no1 [Compound 5f, N-(5-([1,1′-biphenyl]-4-carboxamido)-2-methylphenyl)-5-methylisoxazole-3-carboxamide]
IC50 [1]: > 1e-06 M

CCN1CCC(c2ccc(NC(=O)c3cc(C)on3)c(C3=CCC(C)(C)CC3)c2)CC1 [Compound 73b, N-(5-(1-ethylpiperidin-4-yl)-4′,4′-dimethyl-2′,3′,4′,5′-tetrahydro-[1,1′-biphenyl]-2-yl)-5-methylisoxazole-3-carboxamide]
IC50 (Table 1, read-out: IC50): < 1e-07 M | IC50 [1]: < 1e-07 M

CC(=O)N1CCC(c2ccc(NC(=O)c3cc(C)on3)c(C3=CCCCC3)c2)CC1 [Compound 83b, N-(5-(1-acetylpiperidin-4-yl)-2′,3′,4′,5′-tetrahydro-[1,1′-biphenyl]-2-yl)-5-methylisoxazole-3-carboxamide]
IC50 [1]: 1e-07 to 1e-06 M

Cc1cc(C(=O)Nc2ccc(C3CCNCC3)cc2C2=CCC(C)(C)CC2)no1 [Compound 64b, N-(4′,4′-dimethyl-5-(piperidin-4-yl)-2′,3′,4′,5′-tetrahydro-[1,1′-biphenyl]-2-yl)-5-methylisoxazole-3-carboxamide]
IC50 (Table 1, read-out: IC50): < 1e-07 M | IC50 [1]: < 1e-07 M

CC[N+]1(CC)CCC(c2ccc(NC(=O)c3cc(C)on3)c(C3=CCCCC3)c2)CC1 [Compound 82b, 1,1-diethyl-4-(6-(5-methylisoxazole-3-carboxamido)-2′,3′,4′,5′-tetrahydro-[1,1′-biphenyl]-3-yl)piperidin-1-ium]
IC50 [1]: < 1e-07 M

Cc1cc(C(=O)Nc2ccc(C3CC[N+](C)(C)CC3)cc2C2CCCCC2)no1 [Compound 81b, 4-(3-cyclohexyl-4-(5-methylisoxazole-3-carboxamido)phenyl)-1,1-dimethylpiperidin-1-ium]
IC50 [1]: 1e-07 to 1e-06 M

Cc1cc(C(=O)Nc2ccc(C3CCNC3)cc2C2=CCCCC2)no1 (stereo not shown) [Compound 60a, 5-methyl-N-(5-(pyrrolidin-3-yl)-2′,3′,4′,5′-tetrahydro-[1,1′-biphenyl]-2-yl)isoxazole-3-carboxamide]
IC50 (Table 1, read-out: IC50): 1e-07 to 1e-06 M | IC50 [1]: 1e-07 to 1e-06 M

Cc1cc(C(=O)Nc2cc(NC(=O)c3cc(N4CCC([N+](C)(C)C)C4)cc(C(F)(F)F)c3)ccc2C)no1 (stereo not shown) [Compound 5m, N,N,N-trimethyl-1-(3-((4-methyl-3-(5-methylisoxazole-3-carboxamido)phenyl)carbamoyl)-5-(trifluoromethyl)phenyl)pyrrolidin-3-aminium]
IC50 [1]: > 1e-06 M

Cc1cc(C(=O)Nc2cc(NC(=O)c3cc(NC4CCN(C)CC4)cc(-n4ccnc4C)c3)ccc2C)no1 [Compound 5h, 5-methyl-N-(2-methyl-5-(3-(2-methyl-1H-imidazol-1-yl)-5-((1-methylpiperidin-4-yl)amino)benzamido)phenyl)isoxazole-3-carboxamide]
IC50 [1]: > 1e-06 M

Cc1cc(C(=O)Nc2ccc(C3CCCNCC3)cc2C2=CCC(C)(C)CC2)no1 (stereo not shown) [Compound 64c, N-(5-(azepan-4-yl)-4′,4′-dimethyl-2′,3′,4′,5′-tetrahydro-[1,1′-biphenyl]-2-yl)-5-methylisoxazole-3-carboxamide]
IC50 (Table 1, read-out: IC50): < 1e-07 M | IC50 [1]: < 1e-07 M

Cc1cc(C(=O)Nc2cc(NC(=O)c3cc(N4CCN(C)CC4)cc(-n4ccnc4C)c3)ccc2C)no1 [Compound 5g, 5-methyl-N-(2-methyl-5-(3-(2-methyl-1H-imidazol-1-yl)-5-(4-methylpiperazin-1-yl)benzamido)phenyl)isoxazole-3-carboxamide]
IC50 [1]: > 1e-06 M

Cc1cc(C(=O)Nc2ccc(C3CCN(C)CC3)cc2C2=CCCCC2)no1 [Compound 67b, 5-methyl-N-(5-(1-methylpiperidin-4-yl)-2′,3′,4′,5′-tetrahydro-[1,1′-biphenyl]-2-yl)isoxazole-3-carboxamide]
IC50 (Table 1, read-out: IC50): < 1e-07 M | IC50 [1]: < 1e-07 M

Cc1cc(C(=O)Nc2ccc(C3CCC[N+](C)(C)CC3)cc2C2=CCCCC2)no1 (stereo not shown) [Compound 79c, 1,1-dimethyl-4-(6-(5-methylisoxazole-3-carboxamido)-2′,3′,4′,5′-tetrahydro-[1,1′-biphenyl]-3-yl)azepan-1-ium]
IC50 [1]: < 1e-07 M

Cc1cc(C(=O)Nc2cc(NC(=O)c3cnn(-c4ccccc4)c3C(F)(F)F)ccc2C)no1 [Compound 5s, 5-methyl-N-(2-methyl-5-(1-phenyl-5-(trifluoromethyl)-1H-pyrazole-4-carboxamido)phenyl)isoxazole-3-carboxamide]
IC50 [1]: > 1e-06 M

CCN1CCC(c2ccc(NC(=O)c3cc(C)on3)c(C3=CCCC3)c2)CC1 [Compound 71b, N-(2-(Cyclopent-1-en-1-yl)-4-(1-ethylpiperidin-4-yl)phenyl)-5-methylisoxazole-3-carboxamide]
IC50 (Table 1, read-out: IC50): > 1e-06 M | IC50 [1]: > 1e-06 M

Cc1cc(C(=O)Nc2cc(NC(=O)c3ccc4ccccc4n3)ccc2C)no1 [Compound 5q, 5-methyl-N-(2-methyl-5-(quinoline-2-carboxamido)phenyl)isoxazole-3-carboxamide]
IC50 [1]: > 1e-06 M

CC(C)=CCN1CCC(c2ccc(NC(=O)c3cc(C)on3)c(C3=CCCCC3)c2)CC1 [Compound 76b, 5-methyl-N-(5-(1-(3-methylbut-2-en-1-yl)piperidin-4-yl)-2′,3′,4′,5′-tetrahydro-[1,1′-biphenyl]-2-yl)isoxazole-3-carboxamide]
IC50 (Table 1, read-out: IC50): 1e-07 to 1e-06 M | IC50 [1]: < 1e-07 M

Cc1cc(C(=O)Nc2ccc(C3CCCNCC3)cc2C2=CCCCC2)no1 (stereo not shown) [Compound 60c, N-(5-(azepan-4-yl)-2′,3′,4′,5′-tetrahydro-[1,1′-biphenyl]-2-yl)-5-methylisoxazole-3-carboxamide]
IC50 (Table 1, read-out: IC50): < 1e-07 M | IC50 [1]: < 1e-07 M

Cc1cc(C(=O)Nc2ccc(C3CCCN(C)CC3)cc2C2=CCC(C)(C)CC2)no1 (stereo not shown) [Compound 68c]
IC50 (Table 1, read-out: IC50): < 1e-07 M | IC50 [1]: < 1e-07 M

Cc1cc(C(=O)Nc2ccc(C3CCN(CC4CC4)CC3)cc2C2=CCC(C)(C)CC2)no1 [Compound 78b, N-(5-(1-(cyclopropylmethyl)piperidin-4-yl)-4′,4′-dimethyl-2′,3′,4′,5′-tetrahydro-[1,1′-biphenyl]-2-yl)-5-methylisoxazole-3-carboxamide]
IC50 (Table 1, read-out: IC50): < 1e-07 M | IC50 [1]: < 1e-07 M

Cc1cc(C(=O)Nc2cc(NC(=O)c3ccc4cn[nH]c4c3)ccc2C)no1 [Compound 5t, N-(5-(1H-indazole-6-carboxamido)-2-methylphenyl)-5-methylisoxazole-3-carboxamide]
IC50 [1]: > 1e-06 M

Cc1cc(C(=O)Nc2ccc(NC3CCOCC3)nc2C)no1 [Compound 17b, 5-methyl-N-(2-methyl-6-((tetrahydro-2H-pyran-4-yl)amino)pyridin-3-yl)isoxazole-3-carboxamide]
IC50 [1]: < 1e-07 M

CCN1CCC(c2ccc(NC(=O)c3cc(C)on3)c(C3=CCCCC3)c2)CC1 [Compound 70b, N-(5-(1-ethylpiperidin-4-yl)-2′,3′,4′,5′-tetrahydro-[1,1′-biphenyl]-2-yl)-5-methylisoxazole-3-carboxamide]
IC50 [1]: < 1e-07 M

Cc1cc(C(=O)Nc2ccc(C3CCNCC3)cc2-c2cncnc2)no1 [Compound 62b, 5-methyl-N-(4-(piperidin-4-yl)-2-(pyrimidin-5-yl)phenyl)isoxazole-3-carboxamide]
IC50 (Table 1, read-out: IC50): > 1e-06 M | IC50 [1]: > 1e-06 M

Cc1cc(C(=O)Nc2ccc(C3CCCN(C)CC3)cc2C2=CCCCC2)no1 (stereo not shown) [Compound 67c, 5-methyl-N-(5-(1-methylazepan-4-yl)-2′,3′,4′,5′-tetrahydro-[1,1′-biphenyl]-2-yl)isoxazole-3-carboxamide]
IC50 (Table 1, read-out: IC50): 1e-07 to 1e-06 M | IC50 [1]: 1e-07 to 1e-06 M

Cc1cc(C(=O)Nc2cc(NC(=O)c3cc(N[C@@H]4CCCN(C)C4)cc(C(F)(F)F)c3)ccc2C)no1 [Compound 5l, (R)-5-Methyl-N-(2-methyl-5-(3-((1-methylpiperidin-3-yl)amino)-5-(trifluoromethyl)benzamido)phenyl)isoxazole-3-carboxamide]
IC50 [1]: > 1e-06 M

Cc1cc(C(=O)Nc2ccc(C3CCNCC3)cc2C2CCCCC2)no1 [Compound 65b, N-(2-cyclohexyl-4-(piperidin-4-yl)phenyl)-5-methylisoxazole-3-carboxamide]
IC50 (Table 1, read-out: IC50): > 1e-06 M | IC50 [1]: > 1e-06 M
